Test [1] relates to C. elegans. Kind of test: Feeding assay: ingestion of fluorescent microsphere beads (pharyngeal pumping), read by fluorimetry / fluorescence microscopy. It is filed as in vivo, C. elegans of the Bristol N2 strain. The procedure: 1. C. elegans of the Bristol N2 strain (Brenner, S. 1974. The genetics of Caenorhabditis elegans. Genetics 77: 71-94) were cultured at room temperature on HMS174 E. coli bacteria (Campbell, J. L., Richardson, C., and Studier, F. W. 1978. Genetic recombination and complementation between bacteriophage T7 and cloned fragments of T7 DNA. Proc. Natl. Acad. Sci. USA. 75: 2276-2280) spread on a 150 mm diameter petri dish containing enhanced NGM 3% (w/v) (Avery, L., and Horvitz, H. R. 1990. Effects of starvation and neuroactive drugs on feeding in Caenorhabditis elegans. J. Exp. Zool. 253: 263-270) agar until a good population of adult nematodes was present, but food reserves had not been exhausted. (Nematodes may be mass cultured in suspension if required).
2. The nematodes were collected by washing with 10 mL and then 5 mL of […] and filtering over a 20 μm nylon mesh (Nytal—Catalogue no. BCNY-HD002-20) to retain adult nematodes.
3. Adult nematodes were collected from the mesh using a pasteur pipette and allowed to settle in an eppendorf tube at 1 g for 10 minutes. This packed volume was used to calculate quantities of nematodes for experiments and assays, although nematodes were resuspended in 2-10 volumes of M9 buffer for transfer. Quantitative transfers of nematodes were performed using a Gilson Pipetman P200 or equivalent and a yellow tip with 5 mm cut off the sharp end.
4. 96-well mesh-bottomed plates were blocked prior to performing the assay in order to minimise non-specific adherence of fluorescent microsphere beads. To block, 200 μL of a 0.1% (w/v) suspension of dark blue-dyed, non-fluorescent microsphere beads with a mean diameter of 0.95 μm and a hydrophilic surface coating (Catalogue code DC03B, carboxylate-modified polystyrene/polyvinyl copolymer) (manufactured and supplied by Bangs Laboratories, Inc. 9025 Technology Drive. Fishers, Ind. 46038-2886, USA) were added to the plate and incubated overnight at room temperature with orbital shaking at 70 r.p.m. Prior to the assay, the bead suspension was removed under vacuum using a Millipore Multiscreen manifold. The plate was washed three times by pipetting 200 μL of M9 buffer into each well, allowing the plate to sit for 5 minutes and then sucking off the suspension.
5. The assay was either set up in the wells of a solid-bottomed 24-well plate using a final assay volume in the range of 0.5 to 1.0 mL or it was set up in the wells of a 96-well mesh bottomed plate (Millipore Multiscreen N20 plates, custom order no. SE3R090M6). In the latter case, the final assay volume was always 100 μL. The assay buffer in all cases was M9. The added volume of a stock of M9 and the added volume of double-distilled water were adjusted so as to achieve a final concentration of 1×M9 in the desired assay volume. A sufficient volume of a suspension of nematodes was added to the assay wells to give a final percentage in the range of 2.5% to 15% (v/v) depending on the experiment. A stock solution of the drug or test compound (e.g. serotonin) was added to the wells of the plate to give the desired final concentration. A sufficient volume of a suspension of fluorescent microsphere beads in double-distilled water was added to give a final concentration in the range of 0.025% to 0.1% (w/v) depending on the experiment.
6. The fluorescent beads were 1.30 μm uniformly dyed microsphere beads with a hydrophilic surface-coating. The fluorescence excitation maximum was 420 nm and the emission maximum was 485 nm (catalogue code FC04F, carboxylate-modified polystyrene/polyvinyl copolymer, manufactured and supplied by Bangs Laboratories, Inc. 9025 Technology Drive, Fishers, Ind. 46038-2886, USA).
7. The assay plate was placed on an orbital shaker at 70 r.p.m. at room temperature and incubated for up to 180 minutes (normally 60 minutes), under subdued illumination.
8. At the end of the incubation 20 μL of 100 mM sodium azide was added to the wells of the 96-well mesh plate. […]

Test [2] concerns C. elegans. Kind of test: Videotaping nematodes under Nomarski interference microscopy (pharyngeal pumping rate). It is filed as in vivo. Conditions: at the doses of FIG. 3, separate experiments (not shown).

For `NCCc1c[nH]c2ccc(O)cc12` [serotonin], the “effect of high concentration on signal (bead ingestion)” value in the test on C. elegans [1] (5 mM serotonin, 60 minutes, FIG. 3) was “suboptimal”. Further, in the test on C. elegans [1] (10 μL packed volume of adult nematodes (1,600-1,800 nematodes), two hour incubation, gain setting of 30), the signal over control is given as 6246 arbitrary fluorescence intensity units. The “microsphere beads contained in strongly labelled nematodes” value in the test on C. elegans [1] (estimated, high magnification examination) is recorded as “at least several hundred microsphere beads”. The “effect on microsphere bead ingestion when present during the incubation” value in the test on C. elegans [1] (in vivo) was “increased microsphere bead ingestion”. For the same compound, the “average number of microsphere beads ingested by nematodes more than a control nematode” value in the test with C. elegans [1] (later experiments, optimised conditions) is on record as ≤ 2,400 microsphere beads. Besides, the “signal strength over control relative to the earlier experiment” value with C. elegans [1] (later experiments, optimised conditions, same volume of nematodes) was “approximately 6 times greater”. Besides, in the test on C. elegans [1] (other experiments under similar conditions to FIG. 1, high magnification examination), the “treated nematodes that had ingested one or more microsphere beads” value is on record as “approximately 80%”. Further, in the test with C. elegans [1] (same experiment, two hour incubation), the “microsphere beads ingested on average per serotonin-treated nematode more than a control nematode” value came out at 417 microsphere beads. Further, the “effect on pharyngeal pumping rate” value in the test with C. elegans [2] is recorded as “directly affects pharyngeal pumping rate”.
